Values after ≈ are worked out from the molar mass of the structure shown.
Columns and labels:
[1] = 1-Octanol/water partition coefficient, log P of compound at 2 mg after 24 hrs by spectrophotometry based shake flask method; format: physicochemical
[2] = Antioxidant activity assessed as DPPH free radical scavenging activity at 5 ug/ml after 30 mins by spectrophotometric analysis; format: functional
[3] = Antioxidant activity assessed as DPPH free radical scavenging activity at 25 ug/ml after 30 mins by spectrophotometric analysis; format: functional
[4] = Antioxidant activity assessed as DPPH free radical scavenging activity at 50 ug/ml after 30 mins by spectrophotometric analysis; format: functional
[5] = Antioxidant activity assessed as DPPH free radical scavenging activity at 100 ug/ml after 30 mins by spectrophotometric analysis; format: functional
[6] = Antioxidant activity assessed as DPPH free radical scavenging activity at 150 ug/ml after 30 mins by spectrophotometric analysis; format: functional
[7] = Antioxidant activity assessed as DPPH free radical scavenging activity at 200 ug/ml after 30 mins by spectrophotometric analysis; format: functional
[8] = Antioxidant activity assessed as DPPH free radical scavenging activity after 30 mins by spectrophotometric analysis; format: functional
Rattus norvegicus [9] = species on record: Rattus norvegicus; assay: Reduction in intraocular pressure in Wistar rat model of dexamethasone-induced elevated IOP assessed as change in intraocular pressure at 1 % w/v after 0.5 hrs by tonometry (reference value: 0%); format: functional; set-up: scale not given: the % may be the effect or the level left
Rattus norvegicus [10] = species on record: Rattus norvegicus; assay: Reduction in intraocular pressure in Wistar rat model of dexamethasone-induced elevated IOP assessed as change in intraocular pressure at 1 % w/v after 1 hr by tonometry (reference value: 0%); format: functional; set-up: scale not given: the % may be the effect or the level left
Rattus norvegicus [11] = species on record: Rattus norvegicus; assay: Reduction in intraocular pressure in Wistar rat model of dexamethasone-induced elevated IOP assessed as change in intraocular pressure at 1 % w/v after 1.5 hrs by tonometry (reference value: 0%); format: functional; set-up: scale not given: the % may be the effect or the level left
Rattus norvegicus [12] = species on record: Rattus norvegicus; assay: Reduction in intraocular pressure in Wistar rat model of dexamethasone-induced elevated IOP assessed as change in intraocular pressure at 1 % w/v after 2 hrs by tonometry (reference value: 0%); format: functional; set-up: scale not given: the % may be the effect or the level left
Rattus norvegicus [13] = species on record: Rattus norvegicus; assay: Reduction in intraocular pressure in Wistar rat model of dexamethasone-induced elevated IOP assessed as change in intraocular pressure at 1 % w/v after 2.5 hrs by tonometry (reference value: 0%); format: functional; set-up: scale not given: the % may be the effect or the level left
Rattus norvegicus [14] = species on record: Rattus norvegicus; assay: Reduction in intraocular pressure in Wistar rat model of dexamethasone-induced elevated IOP assessed as change in intraocular pressure at 1 % w/v after 3 hrs by tonometry (reference value: 0%); format: functional; set-up: scale not given: the % may be the effect or the level left
Rattus norvegicus [15] = species on record: Rattus norvegicus; assay: Reduction in intraocular pressure in Wistar rat model of dexamethasone-induced elevated IOP assessed as change in intraocular pressure at 1 % w/v after 4 hrs by tonometry (reference value: 0%); format: functional; set-up: scale not given: the % may be the effect or the level left
Rattus norvegicus [16] = species on record: Rattus norvegicus; assay: Reduction in intraocular pressure in Wistar rat model of dexamethasone-induced elevated IOP assessed as change in intraocular pressure at 1 % w/v after 5 hrs by tonometry (reference value: 0%); format: functional; set-up: scale not given: the % may be the effect or the level left
Rattus norvegicus [17] = species on record: Rattus norvegicus; assay: Reduction in intraocular pressure in Wistar rat model of dexamethasone-induced elevated IOP assessed as change in intraocular pressure at 1 % w/v after 6 hrs by tonometry (reference value: 0%); format: functional; set-up: scale not given: the % may be the effect or the level left
Rattus norvegicus [18] = species on record: Rattus norvegicus; assay: Reduction in intraocular pressure in Wistar rat model of dexamethasone-induced elevated IOP assessed as change in intraocular pressure in contralateral eye at 1 % w/v after 0.5 hrs by tonometry (reference value: 0%); format: ADME, organism-based; set-up: scale not given: the % may be the effect or the level left; details: in vivo, topical_or_ocular
Rattus norvegicus [19] = species on record: Rattus norvegicus; assay: Reduction in intraocular pressure in Wistar rat model of dexamethasone-induced elevated IOP assessed as change in intraocular pressure in contralateral eye at 1 % w/v after 1 hr by tonometry (reference value: 0%); format: ADME, organism-based; set-up: scale not given: the % may be the effect or the level left; details: in vivo, topical_or_ocular
Rattus norvegicus [20] = species on record: Rattus norvegicus; assay: Reduction in intraocular pressure in Wistar rat model of dexamethasone-induced elevated IOP assessed as change in intraocular pressure in contralateral eye at 1 % w/v after 1.5 hrs by tonometry (reference value: 0%); format: ADME, organism-based; set-up: scale not given: the % may be the effect or the level left; details: in vivo
Rattus norvegicus [21] = species on record: Rattus norvegicus; assay: Reduction in intraocular pressure in Wistar rat model of dexamethasone-induced elevated IOP assessed as change in intraocular pressure in contralateral eye at 1 % w/v after 2 hrs by tonometry (reference value: 0%); format: ADME, organism-based; set-up: scale not given: the % may be the effect or the level left; details: in vivo
Rattus norvegicus [22] = species on record: Rattus norvegicus; assay: Reduction in intraocular pressure in Wistar rat model of dexamethasone-induced elevated IOP assessed as change in intraocular pressure in contralateral eye at 1 % w/v after 2.5 hrs by tonometry (reference value: 0%); format: ADME, organism-based; set-up: scale not given: the % may be the effect or the level left; details: in vivo
Rattus norvegicus [23] = species on record: Rattus norvegicus; assay: Reduction in intraocular pressure in Wistar rat model of dexamethasone-induced elevated IOP assessed as change in intraocular pressure in contralateral eye at 1 % w/v after 3 hrs by tonometry (reference value: 0%); format: ADME, organism-based; set-up: scale not given: the % may be the effect or the level left; details: in vivo
Rattus norvegicus [24] = species on record: Rattus norvegicus; assay: Reduction in intraocular pressure in Wistar rat model of dexamethasone-induced elevated IOP assessed as change in intraocular pressure in contralateral eye at 1 % w/v after 4 hrs by tonometry (reference value: 0%); format: ADME, organism-based; set-up: scale not given: the % may be the effect or the level left; details: in vivo
Rattus norvegicus [25] = species on record: Rattus norvegicus; assay: Reduction in intraocular pressure in Wistar rat model of dexamethasone-induced elevated IOP assessed as change in intraocular pressure in contralateral eye at 1 % w/v after 5 hrs by tonometry (reference value: 0%); format: ADME, organism-based; set-up: scale not given: the % may be the effect or the level left; details: in vivo
Rattus norvegicus [26] = species on record: Rattus norvegicus; assay: Reduction in intraocular pressure in Wistar rat model of dexamethasone-induced elevated IOP assessed as change in intraocular pressure in contralateral eye at 1 % w/v after 6 hrs by tonometry (reference value: 0%); format: ADME, organism-based; set-up: scale not given: the % may be the effect or the level left; details: in vivo
Rattus norvegicus [27] = species on record: Rattus norvegicus; assay: Reduction in intraocular pressure in Wistar rat model of dexamethasone-induced elevated IOP assessed as onset time for reduction in intraocular pressure at 1 % w/v by tonometry; format: functional
Rattus norvegicus [28] = species on record: Rattus norvegicus; assay: Reduction in intraocular pressure in Wistar rat model of dexamethasone-induced elevated IOP assessed as peak effect time for reduction in intraocular pressure at 1 % w/v by tonometry; format: functional, organism-based
Rattus norvegicus [29] = species on record: Rattus norvegicus; assay: Reduction in intraocular pressure in Wistar rat model of dexamethasone-induced elevated IOP assessed as reduction in intraocular pressure at peak effect time at 1 % w/v by tonometry; format: functional; set-up: scale not given: the % may be the effect or the level left

| SMILES | logP at 24 h [1] | Activity [2] | Activity [3] | Activity [4] | Activity [5] | Activity [6] | Activity [7] | IC50 [8] | Activity (Rattus norvegicus [9]) | Activity (Rattus norvegicus [10]) | Activity (Rattus norvegicus [11]) | Activity (Rattus norvegicus [12]) | Activity (Rattus norvegicus [13]) | Activity (Rattus norvegicus [14]) | Activity (Rattus norvegicus [15]) | Activity (Rattus norvegicus [16]) | Activity (Rattus norvegicus [17]) | Activity (Rattus norvegicus [18]) | Activity (Rattus norvegicus [19]) | Activity (Rattus norvegicus [20]) | also measured |
| --- | --- | --- | --- | --- | --- | --- | --- | --- | --- | --- | --- | --- | --- | --- | --- | --- | --- | --- | --- | --- | --- |
| O=C(CN1CCN(c2ccc([N+](=O)[O-])cc2)CC1)Nc1nc2ccccc2[nH]1 | 1.94 | 16.1% | 33.9% | 44.8% | 51.7% | 64.9% | 76.7% | 95.49 µg/mL (≈ 251 µM) | 3.33% | 5.85% | 7.68% | 11.88% | 16% | 10.52% | 7.82% | 4.75% | 1.2% | 0.83% | 1.2% | 3.5% | Activity (Rattus norvegicus [21]): 4.87%; Activity (Rattus norvegicus [22]): 5.23%; Activity (Rattus norvegicus [23]): 4.2%; Activity (Rattus norvegicus [24]): 1.6%; Activity (Rattus norvegicus [25]): 0%; Activity (Rattus norvegicus [26]): 0%; Time (Rattus norvegicus [27]): 0.5 h; Tmax (Rattus norvegicus [28]): 2.5 h; Activity (Rattus norvegicus [29]): 51.56% |
| O=C(CN1CCN(CCc2ccccc2)CC1)Nc1nc2ccccc2[nH]1 | 1.89 | 8.11% | 13.5% | 22.3% | 38.1% | 51.8% | 62.9% | 148.39 µg/mL (≈ 408 µM) | 2.53% | 5.52% | 8.97% | 10.17% | 11.95% | 7.1% | 3.76% | 0.83% | 0.4% | 1.23% | 2.07% | 2.9% | Activity (Rattus norvegicus [21]): 3.63%; Activity (Rattus norvegicus [22]): 2.43%; Activity (Rattus norvegicus [23]): 1.67%; Activity (Rattus norvegicus [24]): 0.83%; Activity (Rattus norvegicus [25]): 0.43%; Activity (Rattus norvegicus [26]): 0%; Time (Rattus norvegicus [27]): 0.5 h; Tmax (Rattus norvegicus [28]): 2 h; Activity (Rattus norvegicus [29]): 37.15% |
| CN1CCN(CC(=O)Nc2nc3ccccc3[nH]2)CC1 | 1.67 | 11% | 19.9% | 33.5% | 45% | 54.3% | 61.6% | 137.54 µg/mL (≈ 503 µM) | 5.47% | 9.77% | 11.95% | 12.97% | 13.57% | 10.3% | 4.45% | 1.35% | 0.3% | 1.08% | 2.08% | 4% | Activity (Rattus norvegicus [21]): 5.75%; Activity (Rattus norvegicus [22]): 6.57%; Activity (Rattus norvegicus [23]): 2.15%; Activity (Rattus norvegicus [24]): 0.55%; Activity (Rattus norvegicus [25]): 0%; Activity (Rattus norvegicus [26]): 0%; Time (Rattus norvegicus [27]): 0.5 h; Tmax (Rattus norvegicus [28]): 2.5 h; Activity (Rattus norvegicus [29]): 44.68% |
| O=C(CN1CCN(C(c2ccccc2)c2ccccc2)CC1)Nc1nc2ccccc2[nH]1 | 1.89 | 22.1% | 32.9% | 41.5% | 53.7% | 66.6% | 81.4% | 88.68 µg/mL (≈ 208 µM) | 4.37% | 5.83% | 10.38% | 16.47% | 12.4% | 8.17% | 7.33% | 3.67% | 1.7% | 0.77% | 1.13% | 3.43% | Activity (Rattus norvegicus [21]): 5.08%; Activity (Rattus norvegicus [22]): 4%; Activity (Rattus norvegicus [23]): 3%; Activity (Rattus norvegicus [24]): 1.53%; Activity (Rattus norvegicus [25]): 0%; Activity (Rattus norvegicus [26]): 0%; Time (Rattus norvegicus [27]): 0.5 h; Tmax (Rattus norvegicus [28]): 2.5 h; Activity (Rattus norvegicus [29]): 51.91% |

Reference: ChEMBL document CHEMBL4177608, “Design and synthesis of benzimidazole-based Rho kinase inhibitors for the treatment of glaucoma” (Bioorg Med Chem, 2017)
